Experimental data: ChEMBL document CHEMBL1142798, “Lipophilic versus hydrogen-bonding effect in P3 on potency and selectivity of valine aspartyl ketones as caspase 3 inhibitors” (Bioorg Med Chem Lett, 2005)

Experiments:
Caspase-1 = biological target: T1, Caspase-1 (Homo sapiens, UniProt P29466); test: Inhibitory activity against recombinant human Caspase-1
T1 sequence (P29466 whole entry): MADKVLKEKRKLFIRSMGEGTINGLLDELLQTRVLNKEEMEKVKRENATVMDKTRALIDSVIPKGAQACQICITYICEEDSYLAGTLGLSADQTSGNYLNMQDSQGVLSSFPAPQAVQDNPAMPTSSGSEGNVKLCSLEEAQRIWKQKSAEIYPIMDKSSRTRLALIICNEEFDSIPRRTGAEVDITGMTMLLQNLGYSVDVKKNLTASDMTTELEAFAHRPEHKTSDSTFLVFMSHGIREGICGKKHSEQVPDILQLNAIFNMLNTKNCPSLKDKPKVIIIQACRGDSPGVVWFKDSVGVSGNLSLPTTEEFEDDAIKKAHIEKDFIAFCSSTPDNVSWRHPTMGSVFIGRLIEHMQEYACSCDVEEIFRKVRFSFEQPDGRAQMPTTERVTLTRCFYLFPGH

Caspase-3 = biological target: T2, Caspase-3 (Homo sapiens, UniProt P42574); test: Inhibitory activity against recombinant human Caspase-3
T2 sequence (P42574 whole entry): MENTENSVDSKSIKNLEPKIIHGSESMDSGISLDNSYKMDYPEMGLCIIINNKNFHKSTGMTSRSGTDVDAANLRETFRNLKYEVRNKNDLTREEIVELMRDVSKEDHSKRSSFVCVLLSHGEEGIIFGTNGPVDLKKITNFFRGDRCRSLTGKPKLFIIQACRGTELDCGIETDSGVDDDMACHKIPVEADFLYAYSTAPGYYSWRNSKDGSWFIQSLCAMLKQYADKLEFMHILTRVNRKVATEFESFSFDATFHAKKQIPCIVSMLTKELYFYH

Caspase-8 = Caspase-8 (Homo sapiens, UniProt Q14790); test: Inhibitory activity against recombinant human Caspase-8
Caspase-8, sequence (Q14790 217-374 limits assumed): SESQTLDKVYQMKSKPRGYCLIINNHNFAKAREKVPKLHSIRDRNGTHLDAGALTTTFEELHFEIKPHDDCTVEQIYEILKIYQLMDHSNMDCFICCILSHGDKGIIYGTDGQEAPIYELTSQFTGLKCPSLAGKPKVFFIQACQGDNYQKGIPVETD
Caspase-8, sequence (Q14790 385-479 limits assumed): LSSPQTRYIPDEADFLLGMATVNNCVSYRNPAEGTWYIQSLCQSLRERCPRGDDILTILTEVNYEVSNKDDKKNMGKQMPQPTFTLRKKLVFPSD

Caspase-7 = biological target: T3, Caspase-7 (Homo sapiens, UniProt P55210); test: Inhibitory activity against recombinant human Caspase-7
T3 sequence (P55210 whole entry): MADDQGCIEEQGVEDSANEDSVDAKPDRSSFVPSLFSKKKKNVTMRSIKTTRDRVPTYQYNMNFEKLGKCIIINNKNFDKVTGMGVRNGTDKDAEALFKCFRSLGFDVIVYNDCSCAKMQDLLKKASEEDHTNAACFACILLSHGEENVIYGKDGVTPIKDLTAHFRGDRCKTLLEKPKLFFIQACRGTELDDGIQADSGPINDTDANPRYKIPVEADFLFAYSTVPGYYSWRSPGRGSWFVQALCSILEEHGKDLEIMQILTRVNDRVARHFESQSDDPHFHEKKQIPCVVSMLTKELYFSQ

| SMILES | IC50 (Caspase-1) | IC50 (Caspase-3) | IC50 (Caspase-8) | IC50 (Caspase-7) |
| --- | --- | --- | --- | --- |
| COc1ccc(OC)c(CC(=O)N[C@H](C(=O)N[C@@H](CC(=O)O)C(=O)CSCc2ccccc2)C(C)C)c1 | 7.07 µM | 0.053 µM | 7.91 µM |  |
| COc1ccc(C(C)=O)cc1CC(=O)N[C@H](C(=O)N[C@@H](CC(=O)O)C(=O)CSCc1ccccc1)C(C)C | 6.19 µM | 0.013 µM | 3.88 µM | 0.555 µM |
| CC(C)[C@H](NC(=O)C(C)(C)O)C(=O)N[C@@H](CC(=O)O)C(=O)CSCc1ccccc1 | 18.4 µM | 0.467 µM | 13.8 µM | 10.9 µM |
| CCC[C@@H](C(=O)N[C@H](C(=O)N[C@@H](CC(=O)O)C(=O)CSCc1ccccc1)C(C)C)c1cc(Br)ccc1OC | > 10 µM |  |  |  |
| CC(C)[C@H](O)C(=O)N[C@H](C(=O)N[C@@H](CC(=O)O)C(=O)CSCc1ccccc1)C(C)C | 3.01 µM | 0.118 µM | 7.34 µM | 3.4 µM |
| COc1ccc(Br)cc1[C@H](C(=O)N[C@H](C(=O)N[C@@H](CC(=O)O)C(=O)CSCc1ccccc1)C(C)C)C(C)C | > 10 µM |  |  | > 10 µM |
| COc1ccc(Br)cc1[C@@H](C)C(=O)N[C@H](C(=O)N[C@@H](CC(=O)O)C(=O)CSCc1ccccc1)C(C)C | > 10 µM |  |  |  |
| CC(C)[C@H](NC(=O)C(O)(C(F)(F)F)C(F)(F)F)C(=O)N[C@@H](CC(=O)O)C(=O)CSCc1ccccc1 | > 10 µM | 0.146 µM | > 10 µM | > 10 µM |
| CC(C)[C@H](NC(=O)C(O)(c1ccccc1)c1ccccc1)C(=O)N[C@@H](CC(=O)O)C(=O)CSCc1ccccc1 | > 10 µM | 1.29 µM | > 10 µM | > 10 µM |
| CC(C)[C@H](NC(=O)C(C)(O)c1ccccc1)C(=O)N[C@@H](CC(=O)O)C(=O)CSCc1ccccc1 (stereo not given in full) | 18.9 µM | 0.085 µM | 8 µM | 2.76 µM |
| CCC(O)(CC)C(=O)N[C@H](C(=O)N[C@@H](CC(=O)O)C(=O)CSCc1ccccc1)C(C)C | > 10 µM | 2.02 µM | 9.58 µM | > 10 µM |
| CC(C)[C@H](NC(=O)[C@H](O)c1ccccc1)C(=O)N[C@@H](CC(=O)O)C(=O)CSCc1ccccc1 | 4.16 µM | 0.041 µM | 1.15 µM | 1.05 µM |
| CC(C)[C@H](NC(=O)Cc1ccccc1)C(=O)N[C@@H](CC(=O)O)C(=O)CSCc1ccccc1 | 21.2 µM |  | 22.1 µM |  |
| CC(C)[C@H](NC(=O)C1(O)CC1)C(=O)N[C@@H](CC(=O)O)C(=O)CSCc1ccccc1 | 9.59 µM | 0.16 µM | 12.3 µM | 5.09 µM |
| CO[C@H](C(=O)N[C@H](C(=O)N[C@@H](CC(=O)O)C(=O)CSCc1ccccc1)C(C)C)c1ccccc1 | > 10 µM | 0.425 µM | 9.17 µM | > 10 µM |
| COc1ccc(-c2nc(C)no2)cc1CC(=O)N[C@H](C(=O)N[C@@H](CC(=O)O)C(=O)CSCc1ccccc1)C(C)C | 5.45 µM | 0.009 µM | 3.29 µM | 0.097 µM |
| CC(C)[C@H](NC(=O)[C@H](O)C(C)C)C(=O)N[C@@H](CC(=O)O)C(=O)CSCc1ccccc1 | > 10 µM | 0.33 µM | 7.27 µM | > 10 µM |
| COc1ccc(Br)cc1[C@H](C(=O)N[C@H](C(=O)N[C@@H](CC(=O)O)C(=O)CSCc1ccccc1)C(C)C)C1CC1 | > 10 µM | 0.323 µM | > 10 µM | > 10 µM |
| CC(C)[C@H](NC(=O)C(O)c1ccccc1)C(=O)N[C@@H](CC(=O)O)C(=O)CSCc1ccccc1 (single isomer, unassigned) | 4.06 µM | 0.1 µM | 3.65 µM | 10.9 µM |
| COc1ccc(Br)cc1CC(=O)N[C@H](C(=O)N[C@@H](CC(=O)O)C(=O)CSCc1ccccc1)C(C)C (stereo in doubt; 6) | 3.04 µM | 0.018 µM | 1.89 µM | 0.284 µM |
| C#CC[C@@H](C(=O)N[C@H](C(=O)N[C@@H](CC(=O)O)C(=O)CSCc1ccccc1)C(C)C)c1cc(Br)ccc1OC (stereo in doubt; 13) | > 10 µM | 0.341 µM | 4.47 µM | 3.62 µM |
| C#CC[C@@H](C(=O)N[C@H](C(=O)N[C@@H](CC(=O)O)C(=O)CSCc1ccccc1)C(C)C)c1cc(Br)ccc1OC (stereo in doubt; 14) | 1.03 µM | 0.017 µM | 0.092 µM | 0.139 µM |
| COc1ccc(Br)cc1CC(=O)N[C@H](C(=O)N[C@@H](CC(=O)O)C(=O)CSCc1ccccc1)C(C)C (stereo in doubt; 29) |  | 0.018 µM | 1.89 µM | 0.285 µM |
